For 19 compounds, ED50, IC50 and LD50 results are on record in patent EP1380574B1, “9-aminoacridine derivates and process for the preparation thereof” (Samjin Pharmaceutical Co., Ltd., priority 1998, dated 2000).

Series [1] relates to SKOV-3 (human ovarian). The series is described as follows: In vitro antitumor effect against human tumor cell lines, SRB assay. The format is cell-based. Particulars: SK-OV-3 cells, 48 hours with drug. As for the experimental part:
(§1) Experimental 1 : In vitro antitumor effect against human tumor cell lines.
(§2) A. Tumor cell lines : A549 (human non-small lung cell)
(§3) • SKOV-3 (human ovarian) • HCT-15 (human colon) • XF-498 (human CNS) • SKMEL-2 (human melanoma)
(§4) • a. Human solid tumor cell lines, A549(non-small lung cell), SKMEL-2(melanoma), HCT-15(colon), SKOV-3(ovarian) and XF-498(CNS) were cultured in 5% CO2 incubators using the RPMI 1640 media containing 10% FBS at 37°C, while with transfer-culturing successively once or twice per week. Cell cultures were dissolved in a solution of 0.25% trysin and 3 mmol CDTA PBS(-) to separate the cells sticked on the culture media. • b. 5× 10^3∼2× 10^4 cells were added into each well of 96-well plate and cultured in 5% CO2 incubator at 37°C for 24 hours. • c. Each sample drug was dissolved in a little DMSO and diluted with the used medium to a prescribed concentration for experiment, while the final concentration of DMSO was adjusted below 0.5%. • d. Medium of each well cultured for 24 hours as above b. was removed by aspiration. Each 200µl of drug samples prepared in c. was added into each well and the wells were cultured for 48 hours. Tz (time zero) plates were collected at the point of time drugs were added. • e. According to the SRB assay method, cell fixing with TCA, staining with 0.4% SRB solution, washing with 1% acetic acid and elution of dye with 10mmol Tris solution were carried out on Tz plates and culture-ended plates, and then, OD values were measured at 520 nm.
(§5) • a. Time zero(Tz) value was determined with measuring the SRB protein value at the point of time drugs were added. • b. Control value (C) was determined with the OD value of an well untreated with drug. • c. Drug-treated test value (T) was determined with the OD value of drug-treated well. • d. Effects of drugs were estimated with growth stimulation, net growth inhibition and net killing calculated from Tz, C and T values. • e. If T ≥ Tz, cellular response function was calculated by 100x(T-Tz)/(C-Tz), and, if T 〈 Tz, by 100× (T-Tz)/Tz.
In general terms: Sulforhodamine B stains cellular protein and so reports cell mass.

The subject of series [2] is HCT-15 (human colon). Described as above. The format is cell-based. To be noted: HCT 15 cells, 48 hours with drug. As for the experimental part:
as §1, §2, §3, §4, §5

Series [3] has as its system A549 (human non-small lung cell). Described as above. The series is classed as cell-based. To be noted: A 549 cells, 48 hours with drug. The procedure:
as §1, §2, §3, §4, §5

Series [4] deals with SKMEL-2 (human melanoma). The series is described as above. The format is cell-based. Particulars: SK-MEL-2 cells, 48 hours with drug. The procedure: as §1, §2, §3, §4, §5
Series [5] relates to XF-498 (human CNS). Described as above. The series is classed as cell-based. To be noted: XF-498 cells, 48 hours with drug. The procedure:
as §1, §2, §3, §4, §5

In series [6] the target is Topoisomerase II. The experiment in a line: Inhibition of Topoisomerase II activity (DNA relaxation assay / DNA cleavage assay with supercoiled pBR322 DNA). The series is classed as biochemical. To be noted: Topo II, 30 minutes at 37°C, table does not say which of the two assays. As for the experimental part:
Experimental 3 : Inhibition effects against the Topoisomerase II activities
The present compounds were tested for inhibition of Topoisomerase II activity by means of the relaxation assay using supercoiled pBR322 DNA as the substrate. Topo II and a sample inhibitor were added to a reaction system (50mmol Tris-HCl, pH 7.5, 50mmol KCl, 20mmol MgCl2, 0.5mmol EDTA, 2mmol ATP, 60µg/mℓ BSA) containing supercoiled pBR322 DNA and reacted for 30 minutes at 37°C. Then, a quarter by volume of Stop buffer (5% SDS, 50mmol EDTA, 30% glycerol, 0.1mg/mℓ xylene cyanol, 0.1mg/mℓ BPB) was added to the reaction system to stop the reaction. The resulting product went through electrophoresis on 0.7% agarose gel and was stained by ethidium bromide solution. Mobility of DNA was measured under ultraviolet rays.
Topo II and a sample inhibitor were added to cleavage buffer (30mmol Tris-HCl, pH 7.5, 60mmol KCl, 10mmol MgCl2, 15mmol β -mercaptoethanol, 30µg/mℓ BSA) containing supercoiled pBR322 DNA and allowed to react for 30 minutes at 37°C. Then, […] by 1% was added to the reaction system to stop the reaction. Then, proteinase K was added thereto up to the concentration of 50 µg/mℓ and allowed to react for 30 minutes at 56°C. The reaction product was treated with phenol/chloroform to purify DNA, and the obtained DNA was loaded on agarose gel electrophoresis, transferred to nitrocellulose membrane and hybridized with probe DNA labelled with radioisotope. Then, the nitrocellulose membrane was covered with an X-ray film and exposed to be sensitized and developed, whereby the degree of cleavage of DNA was measured.

Series [7] concerns P388 (mouse lymphoid neoplasma cell). The experiment in a line: In vitro antitumor effect against animal leukemia cells, dye exclusion assay (trypan blue). To be noted: 48 hours, dye exclusion test using trypan blue, read-out: IC50 (concentration showing 50 % cell growth inhibition). The format is cell-based. The text has this: Experimental 2 : In vitro antitumor effects against animal leukemia cells.
• Tumor cell lines : P388 (mouse lymphoid neoplasma cell)
B. Method : Dye Exclusion Assay.

The test system of series [8] is ICR mice. The experiment in a line: Acute toxicity test (LD50), Litchfield-Wilcoxon method. Particulars: i.p., ICR mice (male), observed during 14 days. The format is in vivo.
Experiment in series [9]: as above
The series is classed as in vivo. To be noted: mouse, in vivo, ICR mice (male), observed during 14 days.

In brackets after ≈: the same amount, converted by molar mass.

Consider `N.N.[Cl][Pt][Cl]` [Cisplatin, reference compound], for which the ED50 in [1] amounted to 0.71 µ g/ml; in series [2] it was 3.03 µ g/ml; in [3] it was 0.81 µ g/ml; in [4] it was 0.71 µ g/ml; in [5], 0.77 µ g/ml.
As to `Nc1cc(COC(=O)Nc2ccccc2)cc(Nc2c3ccccc3nc3ccccc23)c1` [Example 1, [3-(acridin-9-yl)amino-5-amino]benzyl N-phenylcarbamate], the IC50 in [6] was determined as 1 µg/mL (≈ 2.3 µM). Besides, the ED50 in [1] came to 1.15 µ g/ml; in series [2], 0.57 µ g/ml; in [3] it was 0.96 µ g/ml; in series [4] it was 0.49 µ g/ml; in series [5] it was 0.44 µ g/ml.
Take `COc1cccc(NC(=O)OCc2cc(N)cc(Nc3c4ccccc4nc4ccccc34)c2)c1` [Example 2, [3-(acridin-9-yl)amino-5-amino]benzyl N-(3-methoxyphenyl)carbamate]: the IC50 in series [6] was 3 µg/mL (≈ 6.46 µM). The ED50 amounted to 0.68 µ g/ml in series [1]; 0.97 µ g/ml in series [2]; 1.12 µ g/ml in [3]; 1.08 µ g/ml in [4]; 0.71 µ g/ml in series [5].
On to `COc1cc(NC(=O)OCc2cc(N)cc(Nc3c4ccccc4nc4ccccc34)c2)cc(OC)c1` [Example 3, [3-(acridin-9-yl)amino-5-amino]benzyl N-(3,5-dimethoxyphenyl)carbamate], for which the IC50 in series [7] turned out to be 1.1 µg/mL (≈ 2.22 µM); in series [6], 3 µg/mL (≈ 6.07 µM).
Consider `COc1cc(NC(=O)OCc2cc(N)cc(Nc3c4ccccc4nc4ccccc34)c2)cc(OC)c1OC` [Example 4, [3-(acridin-9-yl)amino-5-amino]benzyl N-(3,4,5-trimethoxyphenyl)carbamate], for which, in series [6], the IC50 stood at 5 µg/mL (≈ 9.53 µM). Moreover, the ED50 stood at 0.19 µ g/ml in [1]; 0.24 µ g/ml in [2]; 0.19 µ g/ml in series [3]; 0.20 µ g/ml in series [4]; 0.23 µ g/ml in series [5].
In the case of `Cc1cc(C)cc(NC(=O)OCc2cc(N)cc(Nc3c4ccccc4nc4ccccc34)c2)c1` [Example 6, [3-(acridin-9-yl)amino-5-amino]benzyl N-(3,5-dimethylphenyl)carbamate], the IC50 in [6] turned out to be 3 µg/mL (≈ 6.49 µM). Moreover, the ED50 was 0.36 µ g/ml in [1]; 0.33 µ g/ml in series [2]; 0.72 µ g/ml in [3]; 0.40 µ g/ml in series [4]; 0.37 µ g/ml in series [5].
In general, LD50 refers to the dose at which mortality reaches 50%. A low value points to greater toxicity. In series [6], `Nc1cc(COC(=O)Nc2cc(F)cc(F)c2)cc(Nc2c3ccccc3nc3ccccc23)c1` [Example 12, [3-(acridin-9-yl)amino-5-amino]benzyl N-(3,5-difluorophenyl)carbamate] gave an IC50 of 0.5 µg/mL (≈ 1.06 µM). Moreover, the LD50 in [8] was 150 mg/kg.
As for `Nc1cc(COC(=O)Nc2cccc(Cl)c2)cc(Nc2c3ccccc3nc3ccccc23)c1` [Example 14, [3-(acridin-9-yl)amino-5-amino]benzyl N-(3-chlorophenyl)carbamate], the IC50 in series [7] and in series [6] was 1 µg/mL (≈ 2.13 µM) in each case.
With `COc1cc(NC(=S)OCc2cc(N)cc(Nc3c4ccccc4nc4ccccc34)c2)cc(OC)c1` [Example 18, [3-(acridin-9-yl)amino-5-amino]benzyl N-(3,5-dimethoxyphenyl)thiocarbamate], the IC50 stood at 0.7 µg/mL (≈ 1.37 µM) in [7] and 3 µg/mL (≈ 5.88 µM) in series [6].
Compound `COc1cc(NC(=S)OCc2cc(N)cc(Nc3c4ccccc4nc4ccccc34)c2)cc(OC)c1OC` [Example 19, [3-(acridin-9-yl)amino-5-amino]benzyl N-(3,4,5-trimethoxyphenyl)thiocarbamate] showed an IC50 in series [6] of 5 µg/mL (≈ 9.25 µM).
Turning to `COc1cccc(NC(=O)OCc2cccc(Nc3c4ccccc4nc4ccccc34)c2)c1` [Example 20, 3-(acridin-9-yl)aminobenzyl N-(3-methoxyphenyl)carbamate], the IC50 in series [6] was 3 µg/mL (≈ 6.67 µM).
The same measure, in the same setting: under `COc1cc(NC(=O)OCc2cccc(Nc3c4ccccc4nc4ccccc34)c2)cc(OC)c1` [Example 21, 3-(acridin-9-yl)aminobenzyl N-(3,5-dimethoxyphenyl)carbamate] stands 3 µg/mL (≈ 6.26 µM); under `COc1cc(NC(=O)OCc2cccc(Nc3c4ccccc4nc4ccccc34)c2)cc(OC)c1OC` [Example 22, 3-(acridin-9-yl)aminobenzyl N-(3,4,5-trimethoxyphenyl)carbamate], 5 µg/mL (≈ 9.81 µM).
In [6], `CC=Nc1cc(CO)cc(Nc2c3ccccc3nc3ccccc23)c1` [Example 35, 3-(acridin-9-yl)amino-5-(ethylideneamino)phenylmethanol] gave an IC50 of 5 µg/mL (≈ 14.6 µM).
Compound `CCC=Nc1cc(CO)cc(Nc2c3ccccc3nc3ccccc23)c1` [Example 36, 3-(acridin-9-yl)amino-5-(propylideneamino)phenylmethanol] registered an IC50 in series [6] of 3 µg/mL (≈ 8.44 µM).
`CCCC=Nc1cc(CO)cc(Nc2c3ccccc3nc3ccccc23)c1` [Example 37, 3-(acridin-9-yl)amino-5-(butylideneamino)phenylmethanol]: in series [6], the IC50 amounted to 5 µg/mL (≈ 13.5 µM). Further, the ED50 in [1] was determined as 0.93 µ g/ml; in series [2] it was 0.35 µ g/ml; in [3], 0.90 µ g/ml; in [4], 0.89 µ g/ml; in [5], 0.36 µ g/ml.
Turning to `NCC(=O)Nc1cc(CO)cc(Nc2c3ccccc3nc3ccccc23)c1` [Example 44, N-[3-(acridin-9-yl)amino-5-(hydroxymethyl)phenyl] aminoethaneamide], the values for the IC50 in series [7] and in series [6] were 0.1 µg/mL (≈ 0.269 µM) and 3 µg/mL (≈ 8.06 µM), respectively.
`C[C@H](N)C(=O)Nc1cc(CO)cc(Nc2c3ccccc3nc3ccccc23)c1` [Example 45, N-[3-(acridin-9-yl)amino-5-(hydroxymethyl)phenyl] (2S)-2-aminopropaneamide]: the IC50 was found to be 0.05 µg/mL (≈ 0.129 µM) in series [7] and 0.5 µg/mL (≈ 1.29 µM) in [6]. The LD50 at 14 days stood at 730 mg/kg in series [9] (ip) and 133 mg/kg in series [9] (iv). The ED50 in series [1] is reported as 0.21 µ g/ml; in [2], 0.86 µ g/ml; in series [3] it was 0.01 µ g/ml; in series [4], 0.25 µ g/ml; in series [5], 0.88 µ g/ml.
As for `N[C@@H](Cc1ccccc1)C(=O)Nc1cc(CO)cc(Nc2c3ccccc3nc3ccccc23)c1` [Example 46, N-[3-(acridin-9-yl)amino-5-(hydroxymethyl)phenyl] (2S)-2-amino-3-phenylpropaneamide], the IC50 in series [7] came to 0.1 µg/mL (≈ 0.216 µM); in series [6], 3 µg/mL (≈ 6.49 µM).
